Tests used:
Assay in all cases: relative viability (nuclei count vs DMSO), 5 days (fraction); higher = more cells survive
HCC-15 = system: HCC-15
In short: (§1)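 A single step with final 0.05% Triton X-100, 1% formaldehyde and 1 ug/ml Hoechst fixed the cells and stained nuclei 5 days after treatment. Lung cancer cell lines in 1536-well plates had been treated by pin tool the day after seeding with one drug alone or a fixed anchor-drug dose plus five library-drug doses (not always all listed) in √10 steps, and nuclei were counted on 4× images. Relative viability is the ratio of nuclei in treated wells to nuclei in vehicle wells, taken as the median of duplicate plates.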

H3255 = system: H3255
In short: as §1

LK-2 = system: LK-2
In short: as §1

NCI-H1755 = system: NCI-H1755
In short: as §1

NCI-H1563 = system: NCI-H1563
In short: as §1

PC-14 = system: PC-14
In short: as §1

NCI-H2405 = system: NCI-H2405
In short: as §1

NCI-H1650 = system: NCI-H1650
In short: as §1

NCI-H322M = system: NCI-H322M
In short: as §1

PC-3 [JPC-3] = system: PC-3 [JPC-3]
In short: as §1

NCI-H1355 = system: NCI-H1355
In short: as §1

NCI-H661 = system: NCI-H661
In short: as §1

RERF-LC-KJ = system: RERF-LC-KJ
In short: as §1

NCI-H1975 = system: NCI-H1975
In short: as §1

HCC-827 = system: HCC-827
In short: as §1

NCI-H2228 = system: NCI-H2228
In short: as §1

LCLC-97TM1 = system: LCLC-97TM1
In short: as §1

NCI-H1734 = system: NCI-H1734
In short: as §1

CAL-12T = system: CAL-12T
In short: as §1

NCI-H520 = system: NCI-H520
In short: as §1

EKVX = system: EKVX
In short: as §1

**Q.** For `COc1nc(C)cnc1NS(=O)(=O)c1cccnc1-c1ccc(-c2nnco2)cc1` [Zibotentan] + C[C@@H](Oc1cc(-c2cnn(C3CCNCC3)c2)cnc1N)c1c(Cl)ccc(F)c1Cl [Crizotinib] (partner 1 µM), which relative viability (HCC-15; first compound 0.08 µM) is on record?
**A.** 0.918

**Q.** What about the relative viability (HCC-15; first compound 0.253 µM) of the same compound?
**A.** 0.748

**Q.** And the relative viability (HCC-15; first compound 0.8 µM)?
**A.** 0.843

**Q.** What about the relative viability (HCC-15; first compound 2.53 µM) of the same compound?
**A.** 0.885

**Q.** What about the relative viability (H3255; first compound 0.08 µM) of the same compound?
**A.** 0.846

**Q.** What about the relative viability (H3255; first compound 0.253 µM) of the same compound?
**A.** 0.841

**Q.** And the relative viability (H3255; first compound 0.8 µM)?
**A.** 0.975

**Q.** What about the relative viability (H3255; first compound 2.53 µM) of the same compound?
**A.** 0.963

**Q.** And the relative viability (LK-2; first compound 0.08 µM)?
**A.** 0.259

**Q.** What about the relative viability (LK-2; first compound 0.253 µM) of the same compound?
**A.** 0.237

**Q.** What about the relative viability (LK-2; first compound 0.8 µM) of the same compound?
**A.** 0.253

**Q.** What about the relative viability (LK-2; first compound 2.53 µM) of the same compound?
**A.** 0.241

**Q.** And the relative viability (NCI-H1755; first compound 0.08 µM)?
**A.** 0.891

**Q.** And the relative viability (NCI-H1755; first compound 0.253 µM)?
**A.** 0.887

**Q.** And the relative viability (NCI-H1755; first compound 0.8 µM)?
**A.** 0.826

**Q.** What about the relative viability (NCI-H1755; first compound 2.53 µM) of the same compound?
**A.** 0.873

**Q.** And the relative viability (NCI-H1563; first compound 0.08 µM)?
**A.** 0.821

**Q.** What about the relative viability (NCI-H1563; first compound 0.253 µM) of the same compound?
**A.** 0.512

**Q.** What about the relative viability (NCI-H1563; first compound 0.8 µM) of the same compound?
**A.** 0.874

**Q.** And the relative viability (NCI-H1563; first compound 2.53 µM)?
**A.** 0.895

**Q.** And the relative viability (PC-14; first compound 0.08 µM)?
**A.** 0.907

**Q.** What about the relative viability (PC-14; first compound 0.253 µM) of the same compound?
**A.** 0.882

**Q.** And the relative viability (PC-14; first compound 0.8 µM)?
**A.** 0.968

**Q.** And the relative viability (PC-14; first compound 2.53 µM)?
**A.** 0.899

**Q.** And the relative viability (NCI-H2405; first compound 0.08 µM)?
**A.** 0.907

**Q.** And the relative viability (NCI-H2405; first compound 0.253 µM)?
**A.** 0.882

**Q.** What about the relative viability (NCI-H2405; first compound 0.8 µM) of the same compound?
**A.** 0.789

**Q.** What about the relative viability (NCI-H2405; first compound 2.53 µM) of the same compound?
**A.** 0.881

**Q.** And the relative viability (NCI-H1650; first compound 0.08 µM)?
**A.** 1.05

**Q.** What about the relative viability (NCI-H1650; first compound 0.8 µM) of the same compound?
**A.** 1.01

**Q.** What about the relative viability (NCI-H1650; first compound 2.53 µM) of the same compound?
**A.** 0.925

**Q.** What about the relative viability (NCI-H322M; first compound 0.08 µM) of the same compound?
**A.** 0.932

**Q.** And the relative viability (NCI-H322M; first compound 0.253 µM)?
**A.** 0.901

**Q.** What about the relative viability (NCI-H322M; first compound 0.8 µM) of the same compound?
**A.** 0.496

**Q.** What about the relative viability (NCI-H322M; first compound 2.53 µM) of the same compound?
**A.** 0.934

**Q.** What about the relative viability (PC-3 [JPC-3]; first compound 0.08 µM) of the same compound?
**A.** 0.951

**Q.** What about the relative viability (PC-3 [JPC-3]; first compound 0.253 µM) of the same compound?
**A.** 0.967

**Q.** What about the relative viability (PC-3 [JPC-3]; first compound 0.8 µM) of the same compound?
**A.** 0.955

**Q.** What about the relative viability (PC-3 [JPC-3]; first compound 2.53 µM) of the same compound?
**A.** 0.966

**Q.** And the relative viability (NCI-H1355; first compound 0.08 µM)?
**A.** 1.07

**Q.** What about the relative viability (NCI-H1355; first compound 0.253 µM) of the same compound?
**A.** 1.07

**Q.** And the relative viability (NCI-H1355; first compound 0.8 µM)?
**A.** 1.12

**Q.** And the relative viability (NCI-H1355; first compound 2.53 µM)?
**A.** 0.974

**Q.** And the relative viability (NCI-H661; first compound 0.08 µM)?
**A.** 0.971

**Q.** And the relative viability (NCI-H661; first compound 0.8 µM)?
**A.** 1.04

**Q.** What about the relative viability (NCI-H661; first compound 2.53 µM) of the same compound?
**A.** 0.853

**Q.** What about the relative viability (RERF-LC-KJ; first compound 0.08 µM) of the same compound?
**A.** 0.921

**Q.** What about the relative viability (RERF-LC-KJ; first compound 0.253 µM) of the same compound?
**A.** 0.802

**Q.** What about the relative viability (RERF-LC-KJ; first compound 0.8 µM) of the same compound?
**A.** 0.786

**Q.** What about the relative viability (RERF-LC-KJ; first compound 2.53 µM) of the same compound?
**A.** 0.855

**Q.** And the relative viability (NCI-H1975; first compound 0.08 µM)?
**A.** 1.04

**Q.** And the relative viability (NCI-H1975; first compound 0.253 µM)?
**A.** 0.871

**Q.** What about the relative viability (NCI-H1975; first compound 0.8 µM) of the same compound?
**A.** 0.837

**Q.** And the relative viability (NCI-H1975; first compound 2.53 µM)?
**A.** 0.967

**Q.** What about the relative viability (HCC-827; first compound 0.08 µM) of the same compound?
**A.** 0.944

**Q.** What about the relative viability (HCC-827; first compound 0.253 µM) of the same compound?
**A.** 0.955

**Q.** What about the relative viability (HCC-827; first compound 0.8 µM) of the same compound?
**A.** 0.946

**Q.** What about the relative viability (HCC-827; first compound 2.53 µM) of the same compound?
**A.** 0.987

**Q.** And the relative viability (NCI-H2228; first compound 0.08 µM)?
**A.** 0.548

**Q.** What about the relative viability (NCI-H2228; first compound 0.253 µM) of the same compound?
**A.** 0.369

**Q.** And the relative viability (NCI-H2228; first compound 0.8 µM)?
**A.** 0.451

**Q.** What about the relative viability (NCI-H2228; first compound 2.53 µM) of the same compound?
**A.** 0.441

**Q.** What about the relative viability (LCLC-97TM1; first compound 0.08 µM) of the same compound?
**A.** 0.272

**Q.** And the relative viability (LCLC-97TM1; first compound 0.253 µM)?
**A.** 0.374

**Q.** And the relative viability (LCLC-97TM1; first compound 0.8 µM)?
**A.** 0.351

**Q.** And the relative viability (LCLC-97TM1; first compound 2.53 µM)?
**A.** 0.435

**Q.** And the relative viability (NCI-H1734; first compound 0.08 µM)?
**A.** 0.808

**Q.** And the relative viability (NCI-H1734; first compound 0.253 µM)?
**A.** 0.699

**Q.** What about the relative viability (NCI-H1734; first compound 0.8 µM) of the same compound?
**A.** 0.724

**Q.** What about the relative viability (NCI-H1734; first compound 2.53 µM) of the same compound?
**A.** 0.724

**Q.** What about the relative viability (CAL-12T; first compound 0.08 µM) of the same compound?
**A.** 0.667

**Q.** What about the relative viability (CAL-12T; first compound 0.253 µM) of the same compound?
**A.** 0.553

**Q.** What about the relative viability (CAL-12T; first compound 0.8 µM) of the same compound?
**A.** 0.602

**Q.** And the relative viability (CAL-12T; first compound 2.53 µM)?
**A.** 0.712

**Q.** And the relative viability (NCI-H520; first compound 0.08 µM)?
**A.** 0.857

**Q.** And the relative viability (NCI-H520; first compound 0.253 µM)?
**A.** 0.747

**Q.** What about the relative viability (NCI-H520; first compound 0.8 µM) of the same compound?
**A.** 0.798

**Q.** What about the relative viability (NCI-H520; first compound 2.53 µM) of the same compound?
**A.** 0.893

**Q.** And the relative viability (EKVX; first compound 0.08 µM)?
**A.** 0.875

**Q.** What about the relative viability (EKVX; first compound 0.253 µM) of the same compound?
**A.** 0.733

**Q.** What about the relative viability (EKVX; first compound 0.8 µM) of the same compound?
**A.** 0.848

**Q.** And the relative viability (EKVX; first compound 2.53 µM)?
**A.** 1.03
